Measured values reported in US9643917B2, “Water-soluble propofol derivatives and uses thereof” (JIANGSU NHWALUOKANG PHARMCEUTICAL RESEARCH AND DEVELOPMENT …, priority 2014, dated 2017).
Structures can show the parent of a compound that is named as a salt. Where two headings read alike, the source gives them in different places. Marks after values point to notes of the source that are not given here.

Tests used:
[1] = rabbit plasma, 37° C., HPLC
Protocol: (§1) 0.1 ml samples were taken from each of the solutions, added respectively to 1 ml of blood plasma of rabbit (taken from New Zealand white rabbits, treated according to conventional methods, anticoagulated with heparin) or 1 ml of blood plasma of rat (taken from live SD rats, processed according to conventional methods, anti coagulated with heparin), homogeneously mixed, and placed in a thermostatic water bath at 37° C. for incubation with time being recorded. Samples were taken at different time points after the experiment began, and 2 ml of acetonitrile was immediately added. The samples were shaken and centrifuged for 5 min (15,000 rpm), and the supernatant was then taken for HPLC analysis.

[2] = rat plasma, 37° C., HPLC
Protocol: as §1

physchem = settings: physiological saline, saline or isotonic
[3] = tested on: New Zealand White rabbits; settings: TI=LD50/ED50, rabbit
Protocol: (§2) Test samples for the experiment on rabbit were formulated to have corresponding concentrations based on the results from a preliminary test. […] Rats and mice were administered with samples having a fixed concentration of drugs, while the volume of administration altered according to actual situation. The volume of administration to rabbits was 1 mL/kg body weight.
(§3) ED50 and LD50 values concerning anesthesia were determined using a sequential method. Healthy KM mice (male), SD rats (male) and New Zealand White rabbits were used for test. […] For rabbits, the compounds were administered by injection at a constant rate via ear vein for 30 seconds. Before the test, a preliminary test was conducted to determine an approximate dosage (volume of administration) that leads to anesthetization (or death) of animals, which was set as the middle dosage in the formal test. […] The disappearance of righting reflex or death was used as indicators of pharmacological efficacy or toxicity, respectively. The formal test began with the administration of the middle dosage. If animals were anesthetized, a lower dosage was administered; if animals were not anesthetized, a higher dosage was administered, until the cycle was repeated for 3-4 times. LD50 and ED50 were calculated by a sequential method aot425 software. TI was calculated according to the following equation: TI=LD50/ED50.

SD rats = settings: for TI Rat: TI=LD50/ED50, rat; for Rat ED50: disappearance of righting reflex, caudal vein injection
Protocol: as §2, §3

KM mice = settings: for TI Mouse: TI=LD50/ED50, mouse; for Mouse ED50: disappearance of righting reflex, caudal vein injection
Protocol: as §2, §3

Kunming mice = settings: tail intravenous injection, n = 5
Protocol: Rats and mice were administered with samples having a fixed concentration of drugs, while the volume of administration altered according to actual situation. The volume of administration to rabbits was 1 mL/kg body weight.
The periods during which the righting reflex of mice disappeared (latent period) and recovered (persistent period) were recorded.

in vivo [4] = settings: male, SD, rat, intravenous, caudal vein injection
Protocol: as §2, §3

in vivo [5] = settings: male, KM, mouse, intravenous, caudal vein injection, confirmation test
Protocol: as §2, §3

[6] = 3 mg/ml solution, confirmation test
[7] = 3 mg/ml solution, first test (*)
[8] = 6 mg/ml solution, confirmation test
[9] = 6 mg/ml solution, first test (*)
[10] = dosage 2 * ED50, 3 mg/ml solution
[11] = dosage 2 * ED50, 6 mg/ml solution

Structure (SMILES): CC(C)c1cccc(C(C)C)c1OC(=O)C(F)CCN(C)C (racemic) [E1, Propofol 4-(N,N-dimethyl)amino-2-(R,S)-fluorobutyrate hydrochloride]
- Dissociation percent 15 s [1]: 67.5%
- Dissociation percent 30 s [1]: 85.5%
- Dissociation percent 5 s [2]: 75.1%
- Dissociation percent 15 s [2]: 83.2%
- Dissociation percent 30 s [2]: 96.7%
- solubility (physchem): > 20 mg/mL

Structure (SMILES): CC(C)c1cccc(C(C)C)c1OC(=O)[C@H](F)CCN(C)C.Cl [E2, Propofol 4-(N,N-dimethyl)amino-2-(R)-fluorobutyrate hydrochloride]
- Dissociation percent 15 s [1]: 97.7%
- Dissociation percent 30 s [1]: 100%
- TI index [3]: 3.5
- Dissociation percent 5 s [2]: 100%
- TI Rat (SD rats; 3 mg/ml solution): 3.8
- TI Rat (SD rats; 6 mg/ml solution): 3.1
- Rat ED50 (SD rats; 3 mg/ml solution): 9.8 mg/kg
- Rat ED50 (SD rats; 6 mg/ml solution): 10.1 mg/kg
- TI Mouse (KM mice; [6]): 3
- TI Mouse (KM mice; [7]): 4*
- TI Mouse (KM mice; [8]): 3.7
- TI Mouse (KM mice; [9]): 3.6*
- Mouse ED50 (KM mice; [6]): 15.4 mg/kg
- Mouse ED50 (KM mice; [7]): 17.9 mg/kg
- Mouse ED50 (KM mice; [8]): 13.0 mg/kg
- Mouse ED50 (KM mice; [9]): 15.2 mg/kg
- Latent Period (Kunming mice; [10]): 14.6 ± 0.9 s
- Persistent period (Kunming mice; [10]): 383.6 ± 242.1 s
- Latent Period (Kunming mice; [11]): 14.2 ± 1.9 s
- Persistent period (Kunming mice; [11]): 543 ± 231 s

Structure (SMILES): CC(C)c1cccc(C(C)C)c1OC(=O)C(F)CC(=O)[O-].[Na+] [F7, Propofol-2-(R)-fluorobutyrate monoester sodium salt]
- Dissociation percent 15 s [1]: 46.3%
- Dissociation percent 30 s [1]: 72.8%
- TI index [3]: 2.6
- Dissociation percent 5 s [2]: 58.8%
- Dissociation percent 15 s [2]: 71.3%
- Dissociation percent 30 s [2]: 85.4%
- TI Rat (SD rats; 3 mg/ml solution): 3.0
- TI Rat (SD rats; 6 mg/ml solution): 3.5
- Rat ED50 (SD rats; 3 mg/ml solution): 15.7 mg/kg
- Rat ED50 (SD rats; 6 mg/ml solution): 12.5 mg/kg
- TI Mouse (KM mice; [6]): 2.6
- TI Mouse (KM mice; [7]): 2.8*
- TI Mouse (KM mice; [8]): 3.1
- TI Mouse (KM mice; [9]): 2.4*
- Mouse ED50 (KM mice; [6]): 19.2 mg/kg
- Mouse ED50 (KM mice; [7]): 21.4 mg/kg
- Mouse ED50 (KM mice; [8]): 18.1 mg/kg
- Mouse ED50 (KM mice; [9]): 20.7 mg/kg
- Latent Period (Kunming mice; [10]): 20.2 ± 0.6 s
- Persistent period (Kunming mice; [10]): 335.5 ± 218.1 s
- Latent Period (Kunming mice; [11]): 16.2 ± 2.2 s
- Persistent period (Kunming mice; [11]): 517 ± 231 s

Structure (SMILES): CC(C)c1cccc(C(C)C)c1OC(=O)[C@@H](F)CCOP(=O)([O-])[O-].[Na+].[Na+] [G2, {1-[4-(2,6-diisopropylphenoxy)-4-oxo-3-(S)-3-fluoro-1-butyl]} phosphate monoester disodium salt]
- Dissociation percent 15 s [1]: 37.2%
- Dissociation percent 30 s [1]: 54.3%
- Dissociation percent 5 s [2]: 48.5%
- Dissociation percent 15 s [2]: 69.7%
- TI Rat (SD rats; 3 mg/ml solution): 3.3
- TI Rat (SD rats; 6 mg/ml solution): 2.8
- Rat ED50 (SD rats; 6 mg/ml solution): 21.1 mg/kg
- TI Mouse (KM mice; [6]): 3.0
- TI Mouse (KM mice; [7]): 2.8*
- TI Mouse (KM mice; [8]): 2.3
- TI Mouse (KM mice; [9]): 1.9*
- Mouse ED50 (KM mice; [6]): 19.8 mg/kg
- Mouse ED50 (KM mice; [7]): 23.7 mg/kg
- Mouse ED50 (KM mice; [8]): 22.8 mg/kg
- Mouse ED50 (KM mice; [9]): 25.6 mg/kg
- Latent Period (Kunming mice; [10]): 16.3 ± 0.8 s
- Persistent period (Kunming mice; [10]): 383.6 ± 242.1 s
- Latent Period (Kunming mice; [11]): 15.7 ± 2.3 s
- Persistent period (Kunming mice; [11]): 571 ± 173 s

Structure (SMILES): CC(C)c1cccc(C(C)C)c1O [Propofol, 2,6-diisopropylphenol]
- LD50 (in vivo [4]; 3 mg/ml solution): 21.5 mg/kg
- LD50 (in vivo [4]; 6 mg/ml solution): 17.4 mg/kg
- TI Rat (SD rats; 3 mg/ml solution): 5.5
- TI Rat (SD rats; 6 mg/ml solution): 4.9
- TI Mouse (KM mice; [6]): 4.9
- TI Mouse (KM mice; [8]): 3.8
- LD50 (in vivo [5]; 3 mg/ml solution): 38.4 mg/kg
- LD50 (in vivo [5]; 6 mg/ml solution): 42.9 mg/kg
